Reference: patent publication US20230293539A1, “MLL1-WDR5 PROTEIN-PROTEIN INTERACTION INHIBITOR COMPOUNDS AND USES THEREOF” (HUYABIO International, LLC, priority 2022, published 2023)

Key:
[1] = target: WDR5 (Homo sapiens, UniProt P61964); assay: WDR5 TR-FRET Assay; assay type: binding; details: 5 nM WDR5 protein, 10 nM peptide, read-out: IC50 (MLL1-WDR5 PPI inhibitory activity)
Protocol: WDR5 TR-FRET Assay Procedure: Stock compounds were transferred to the assay plate by Echo Liquid Handler. Reactions were performed in the assay buffer (1×PBS, 300 mM NaCl, 0.5 mM TCEP, 0.1% CHAPS) containing 5 nM WDR5 protein, 10 nM peptide (Ac-ARTEVHLRKS-[Ahx-Ahx][C]-Alexa Fluor 488-NH2) and 0.25 nM Tb-anti His antibody (Tb-Ab) in 384-well white plate (PerkinElmer) with a final volume of 20 μl. Compounds were incubated with WDR5 protein for 30 min at room temperature. Plates were covered, protected from light and incubated for 60 min. at room temperature after adding the peptide and Tb-Ab. EnVision Multimode Plate Reader (PerkinElmer) was used for the TR-FRET assay with excitation wavelength at 340 nm and emission wavelength at 495 and 520 nm. The ratio of the 520/495 nm wavelengths were used to assess the degree of the FRET signal. IC50 was calculated by fitting the inhibition data using XLfit software to sigmoidal dose-response model.

[2] = target: T1, BRD3-BD1 (Homo sapiens, UniProt Q15059); assay: Selectivity panel (Table 3); assay type: binding
T1 construct: BRD3-BD1
T1 sequence (Q15059 34-140 limits assumed): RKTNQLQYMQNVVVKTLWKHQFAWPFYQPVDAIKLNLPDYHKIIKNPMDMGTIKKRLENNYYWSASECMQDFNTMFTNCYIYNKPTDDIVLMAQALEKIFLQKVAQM

[3] = target: T2, BRD4-BD1 (Homo sapiens, UniProt O60885); assay: Selectivity panel (Table 3); assay type: binding
T2 construct: BRD4-BD1

[4] = target: T3, BRD4-BD2 (Homo sapiens, UniProt O60885); assay: Selectivity panel (Table 3); assay type: binding
T3 construct: BRD4-BD2

[5] = target: GLS1 (Homo sapiens, UniProt O94925); assay: Selectivity panel (Table 3); assay type: biochemical
[6] = target: HDAC6 (Homo sapiens, UniProt Q9UBN7); assay: Selectivity panel (Table 3); assay type: biochemical
[7] = target: MALTI (Homo sapiens, UniProt Q9UDY8); assay: Selectivity panel (Table 3); assay type: biochemical
Sequence of MALTI (Q9UDY8 whole entry): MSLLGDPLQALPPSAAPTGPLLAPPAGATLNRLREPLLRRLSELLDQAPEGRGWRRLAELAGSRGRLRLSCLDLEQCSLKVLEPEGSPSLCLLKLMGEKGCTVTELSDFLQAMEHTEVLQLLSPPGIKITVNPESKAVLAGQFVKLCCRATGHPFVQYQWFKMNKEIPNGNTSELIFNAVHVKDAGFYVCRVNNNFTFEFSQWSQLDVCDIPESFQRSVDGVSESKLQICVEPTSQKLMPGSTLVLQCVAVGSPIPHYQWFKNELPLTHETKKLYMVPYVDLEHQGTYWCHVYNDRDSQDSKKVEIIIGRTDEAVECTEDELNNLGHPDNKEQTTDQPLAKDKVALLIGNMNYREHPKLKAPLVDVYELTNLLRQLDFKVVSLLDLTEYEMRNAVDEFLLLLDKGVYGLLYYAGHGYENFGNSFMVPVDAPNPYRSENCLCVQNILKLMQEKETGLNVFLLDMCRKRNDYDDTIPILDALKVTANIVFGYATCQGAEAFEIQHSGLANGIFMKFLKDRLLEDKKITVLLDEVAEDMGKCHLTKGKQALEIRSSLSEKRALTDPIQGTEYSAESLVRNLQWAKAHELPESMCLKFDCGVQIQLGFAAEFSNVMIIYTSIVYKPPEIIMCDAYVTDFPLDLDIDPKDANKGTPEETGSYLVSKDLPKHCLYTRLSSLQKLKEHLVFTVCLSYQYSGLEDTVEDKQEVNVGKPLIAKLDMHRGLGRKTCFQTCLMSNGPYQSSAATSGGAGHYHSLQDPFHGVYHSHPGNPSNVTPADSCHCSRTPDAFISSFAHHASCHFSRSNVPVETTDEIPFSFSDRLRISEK

[8] = target: POLQPolymerase (Homo sapiens, UniProt O75417); assay: Selectivity panel (Table 3); assay type: biochemical
Sequence of POLQPolymerase (O75417 whole entry): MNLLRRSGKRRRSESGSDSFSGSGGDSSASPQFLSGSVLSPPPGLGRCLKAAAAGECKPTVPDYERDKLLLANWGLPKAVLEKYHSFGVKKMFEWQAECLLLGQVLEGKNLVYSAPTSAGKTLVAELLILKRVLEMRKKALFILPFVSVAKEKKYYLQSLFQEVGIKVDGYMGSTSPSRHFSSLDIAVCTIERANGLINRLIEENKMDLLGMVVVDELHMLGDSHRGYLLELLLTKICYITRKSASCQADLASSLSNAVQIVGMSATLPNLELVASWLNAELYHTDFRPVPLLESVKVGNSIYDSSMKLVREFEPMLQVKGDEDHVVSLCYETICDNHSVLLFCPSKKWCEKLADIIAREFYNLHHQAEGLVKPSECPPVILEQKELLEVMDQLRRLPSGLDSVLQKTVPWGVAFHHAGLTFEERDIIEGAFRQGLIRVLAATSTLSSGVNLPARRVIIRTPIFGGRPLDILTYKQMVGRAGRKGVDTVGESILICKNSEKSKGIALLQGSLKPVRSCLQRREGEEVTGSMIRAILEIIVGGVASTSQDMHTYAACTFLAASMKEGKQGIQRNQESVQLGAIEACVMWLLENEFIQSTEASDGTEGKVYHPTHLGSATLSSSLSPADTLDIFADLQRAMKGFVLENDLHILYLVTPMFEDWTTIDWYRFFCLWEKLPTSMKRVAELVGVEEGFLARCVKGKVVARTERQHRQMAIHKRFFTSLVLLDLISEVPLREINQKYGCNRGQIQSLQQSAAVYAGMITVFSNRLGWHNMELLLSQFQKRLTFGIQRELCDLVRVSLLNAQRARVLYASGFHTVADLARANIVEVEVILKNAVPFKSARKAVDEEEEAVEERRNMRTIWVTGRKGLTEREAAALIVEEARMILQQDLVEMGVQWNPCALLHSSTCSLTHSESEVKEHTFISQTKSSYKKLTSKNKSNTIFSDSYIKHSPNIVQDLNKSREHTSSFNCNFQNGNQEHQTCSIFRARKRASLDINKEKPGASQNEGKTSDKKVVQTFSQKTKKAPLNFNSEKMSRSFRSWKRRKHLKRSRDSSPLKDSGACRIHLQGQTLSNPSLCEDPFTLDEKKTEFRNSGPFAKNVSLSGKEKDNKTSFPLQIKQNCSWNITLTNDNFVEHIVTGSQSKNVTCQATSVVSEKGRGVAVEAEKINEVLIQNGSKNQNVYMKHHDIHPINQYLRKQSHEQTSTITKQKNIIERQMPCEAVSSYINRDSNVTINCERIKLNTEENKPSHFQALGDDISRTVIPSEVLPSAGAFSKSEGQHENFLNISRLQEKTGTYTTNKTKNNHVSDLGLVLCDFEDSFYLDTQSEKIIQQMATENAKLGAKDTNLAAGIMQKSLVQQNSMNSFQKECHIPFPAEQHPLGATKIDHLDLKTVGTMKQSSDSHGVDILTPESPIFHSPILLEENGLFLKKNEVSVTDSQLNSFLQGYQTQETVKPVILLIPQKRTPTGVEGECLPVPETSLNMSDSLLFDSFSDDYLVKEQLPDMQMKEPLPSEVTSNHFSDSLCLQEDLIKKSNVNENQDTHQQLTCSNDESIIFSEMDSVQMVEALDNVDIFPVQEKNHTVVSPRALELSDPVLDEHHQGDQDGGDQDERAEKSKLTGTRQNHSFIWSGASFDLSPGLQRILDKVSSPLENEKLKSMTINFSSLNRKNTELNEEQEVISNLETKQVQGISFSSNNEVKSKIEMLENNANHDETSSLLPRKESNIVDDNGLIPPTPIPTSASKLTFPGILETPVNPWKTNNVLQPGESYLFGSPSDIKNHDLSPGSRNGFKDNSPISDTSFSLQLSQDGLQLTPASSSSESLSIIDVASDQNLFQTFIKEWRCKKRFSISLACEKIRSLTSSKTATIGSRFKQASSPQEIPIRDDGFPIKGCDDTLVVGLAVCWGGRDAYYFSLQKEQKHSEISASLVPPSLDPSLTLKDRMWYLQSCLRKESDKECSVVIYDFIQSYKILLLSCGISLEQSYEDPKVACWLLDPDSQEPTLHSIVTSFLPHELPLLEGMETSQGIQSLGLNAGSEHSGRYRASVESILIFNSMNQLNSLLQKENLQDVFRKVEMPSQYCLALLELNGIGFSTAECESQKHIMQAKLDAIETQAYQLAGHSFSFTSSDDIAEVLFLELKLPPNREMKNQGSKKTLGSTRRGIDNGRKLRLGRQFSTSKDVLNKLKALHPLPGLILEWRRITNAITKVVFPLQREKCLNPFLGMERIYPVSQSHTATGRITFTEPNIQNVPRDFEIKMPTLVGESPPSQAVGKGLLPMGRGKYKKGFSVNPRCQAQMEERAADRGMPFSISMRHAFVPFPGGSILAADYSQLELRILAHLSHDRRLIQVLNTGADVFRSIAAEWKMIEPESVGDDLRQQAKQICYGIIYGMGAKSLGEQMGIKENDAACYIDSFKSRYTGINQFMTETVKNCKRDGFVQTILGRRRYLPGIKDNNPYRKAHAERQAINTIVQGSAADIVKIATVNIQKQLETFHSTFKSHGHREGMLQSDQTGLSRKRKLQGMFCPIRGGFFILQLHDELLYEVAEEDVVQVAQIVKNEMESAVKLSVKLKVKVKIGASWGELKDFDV

[9] = target: PTP1B (Homo sapiens, UniProt P18031); assay: Selectivity panel (Table 3); assay type: biochemical
Sequence of PTP1B (P18031 whole entry, species assumed): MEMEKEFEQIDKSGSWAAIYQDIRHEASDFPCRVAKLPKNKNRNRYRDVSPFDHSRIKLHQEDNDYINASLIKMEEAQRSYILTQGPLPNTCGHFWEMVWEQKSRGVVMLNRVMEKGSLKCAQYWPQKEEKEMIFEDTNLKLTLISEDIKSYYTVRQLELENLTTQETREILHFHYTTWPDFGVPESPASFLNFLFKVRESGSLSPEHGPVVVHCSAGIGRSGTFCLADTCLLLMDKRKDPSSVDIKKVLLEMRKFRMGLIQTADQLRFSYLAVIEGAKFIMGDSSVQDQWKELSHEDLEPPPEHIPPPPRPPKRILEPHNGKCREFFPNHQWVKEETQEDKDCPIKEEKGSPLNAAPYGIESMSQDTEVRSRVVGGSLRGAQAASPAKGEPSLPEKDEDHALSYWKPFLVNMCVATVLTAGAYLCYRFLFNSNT

[10] = target: TEAD1 (Homo sapiens, UniProt P28347); assay: Selectivity panel (Table 3); assay type: binding
Sequence of TEAD1 (P28347 whole entry, species assumed): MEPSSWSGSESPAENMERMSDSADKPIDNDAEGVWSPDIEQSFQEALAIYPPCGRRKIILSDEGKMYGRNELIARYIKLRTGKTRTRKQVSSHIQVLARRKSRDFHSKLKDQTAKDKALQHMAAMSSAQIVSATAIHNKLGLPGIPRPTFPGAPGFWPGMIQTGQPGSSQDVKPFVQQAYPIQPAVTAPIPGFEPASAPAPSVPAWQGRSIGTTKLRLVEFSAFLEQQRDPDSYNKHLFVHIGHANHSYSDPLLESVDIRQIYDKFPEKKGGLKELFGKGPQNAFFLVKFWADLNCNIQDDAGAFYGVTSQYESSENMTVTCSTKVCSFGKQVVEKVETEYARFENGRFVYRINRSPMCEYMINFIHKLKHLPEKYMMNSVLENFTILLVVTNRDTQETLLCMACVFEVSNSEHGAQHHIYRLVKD

[11] = target: TEAD2 (Homo sapiens, UniProt Q15562); assay: Selectivity panel (Table 3); assay type: binding
Sequence of TEAD2 (Q15562 whole entry, species assumed): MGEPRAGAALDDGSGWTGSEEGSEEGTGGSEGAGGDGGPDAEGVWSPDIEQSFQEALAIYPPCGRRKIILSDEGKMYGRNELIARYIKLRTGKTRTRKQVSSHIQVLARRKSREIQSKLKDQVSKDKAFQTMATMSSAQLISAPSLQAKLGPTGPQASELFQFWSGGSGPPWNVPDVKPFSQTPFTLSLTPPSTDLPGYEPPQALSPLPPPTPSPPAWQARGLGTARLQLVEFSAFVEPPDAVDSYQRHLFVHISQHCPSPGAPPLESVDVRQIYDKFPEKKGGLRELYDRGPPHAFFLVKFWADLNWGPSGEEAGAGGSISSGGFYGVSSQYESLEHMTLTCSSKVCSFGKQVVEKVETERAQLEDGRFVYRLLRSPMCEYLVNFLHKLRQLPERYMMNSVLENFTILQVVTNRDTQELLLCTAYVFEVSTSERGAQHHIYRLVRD

[12] = Dog PK (oral); assay type: in vivo, Beagle dogs; details: for Cmax / AUC(0-t) / half-life: Beagle, plasma
Protocol: Dog PK: Fasted or fed non-naïve Beagle dogs (Marshall Bioresources, Beijing, China) were administered a single intravenous bolus or oral gavage administration of test compounds at respective doses. Blood samples for plasma isolation were collected from a peripheral vessel, from restrained, non-sedated animals at the respective sampling time points. The quantification of compound concentrations in dog plasma was quantified using LC-MS/MS method. Plasma concentration versus time data was analyzed by non-compartmental mode approaches using the WinNonlin software program (version 6.3 or above, Pharsight). Pharmacokinetic parameters, including C0, CL, Vdss, Cmax, Tmax T1/2, AUC0-last, AUC0-inf, MRT0-last, MRT0-inf, bioavailability (%) for IV and PO groups were calculated. See FIGS. 9A, […], 9C and FIGS. 10A, 10B, 10C, and 10D.

[13] = Liver S9 stability assay; assay type: in vitro ADME, human
Protocol: (§1) Liver S9 stability assay: Test compounds (1 μM) and positive control were incubated with 5 mM GSH and liver S9 (1 mg protein/ml) from multiple species (including human, monkey, dog, rat and mouse) at 37° C. at 0, 10, 30, and 60 minutes in duplicate. After adding the stop solution, 100 μL of supernatant were analyzed by LC-MS/MS. The % remaining of test compound, T1/2 (min), and CLint (μL/min/mg) were calculated and were reported.

[14] = Liver S9 stability assay; assay type: in vitro ADME, rat
Protocol: as §1

[15] = Liver S9 stability assay; assay type: in vitro ADME, mouse
Protocol: as §1

[16] = Metabolite ID in Liver S9; assay type: in vitro ADME; details: HBI-2375 and metabolites in Mouse liver S9
[17] = Metabolite ID in Liver S9; assay type: in vitro ADME; details: HBI-2375 and metabolites in Rat liver S9
[18] = Metabolite ID in Liver S9; assay type: in vitro ADME; details: HBI-2375 and metabolites in Monkey liver S9
[19] = Metabolite ID in Liver S9; assay type: in vitro ADME; details: HBI-2375 and metabolites in Human liver S9
[20] = Metabolite ID in plasma; assay type: in vitro ADME; details: HBI-2375 and metabolites in Dog plasma
[21] = Metabolite ID in plasma; assay type: in vitro ADME; details: HBI-2375 and metabolites in Human plasma
[22] = in vitro; details: human, plasma
[23] = in vitro; details: rat, plasma

Compound: Cc1c(F)c(N)cc(C(=O)Nc2cc(-n3cc(C(=O)N4CCN(C)CC4)nn3)c(F)cc2N2C[C@@H](C)N(C)[C@@H](C)C2)c1Cl [HYBI-084, 5-amino-2-chloro-4-fluoro-N-(4-fluoro-5-(4-(4-methylpiperazine-1-carbonyl)-1H-1,2,3-triazol-1-yl)-2-((3S,5R)-3,4,5-trimethylpiperazin-1-yl)phenyl)-3-methylbenzamide]
- IC50 [1]: 4.48 nM
- IC50 [2]: > 1000 nM
- IC50 [3]: > 1000 nM
- IC50 [4]: > 1000 nM
- IC50 [5]: > 1000 nM
- IC50 [6]: > 1000 nM
- IC50 [7]: > 1000 nM
- IC50 [8]: > 1000 nM
- IC50 [9]: > 1000 nM
- IC50 [10]: > 1000 nM
- IC50 [11]: > 1000 nM
- F ([12]; 1.5 mpk): 11.4%
- F ([12]; 4.5 mpk): 37.7%
- Cmax ([12]; 1.5 mg/kg, 1.5 mpk): 8.4 nM
- Cmax ([12]; 4.5 mg/kg, 4.5 mpk): 47.6 nM
- AUC(0-t) ([12]; 1.5 mg/kg, 1.5 mpk): 0.0466 µM·h
- half-life ([12]; 1.5 mg/kg, 1.5 mpk): 7.5 h
- AUC(0-t) ([12]; 4.5 mg/kg, 4.5 mpk): 0.459 µM·h
- half-life ([12]; 4.5 mg/kg, 4.5 mpk): 6.3 h
- half-life at 1 μM ([13]; Human liver S9): > 2.42 h
- microsomal CLint at 1 μM ([13]; Human liver S9): < 4.8 µL/min/mg
- % Remaining after 60 min incubation ([13]; Human liver S9, 1 μM, 5 mM GSH, 37° C.): 85.1%
- half-life at 1 μM ([14]; Rat liver S9): > 2.42 h
- microsomal CLint at 1 μM ([14]; Rat liver S9): < 4.8 µL/min/mg
- % Remaining after 60 min incubation ([14]; Rat liver S9, 1 μM, 5 mM GSH, 37° C.): 80.1%
- half-life at 1 μM ([15]; Mouse liver S9): > 2.42 h
- microsomal CLint at 1 μM ([15]; Mouse liver S9): < 4.8 µL/min/mg
- % Remaining after 60 min incubation ([15]; Mouse liver S9, 1 μM, 5 mM GSH, 37° C.): 110%
- Relative Abundance (UV Peak Area % Total) [16]: 63.02%
- Relative Abundance (UV Peak Area % Total) [17]: 71.86%
- Relative Abundance (UV Peak Area % Total) [18]: 34.68%
- Relative Abundance (UV Peak Area % Total) [19]: 78.70%
- Relative Abundance (UV Peak Area % Total) [20]: 97.31%
- Relative Abundance (UV Peak Area % Total) [21]: 97.20%
- fraction unbound [22]: < 0.07
- fraction unbound [23]: < 0.07
